Test results from patent US12139473B2, “Substituted-N-heteroaryl compounds and uses thereof” (Bionomics Limited, priority 2019, dated 2024).

Assays:
hKv3.2 = target: T1, hKv3.2 (Homo sapiens, UniProt Q96PR1); assay: Automated patch clamp electrophysiology (Patchliner), CHO/Kv3.2 cells; type: cell-based; details: 10 μM compound, hKv3.2 in CHO-K1, whole-cell; for activation at 10 µM: peak current at voltage step of −10 mV vs vehicle (0.33% DMSO), read-out: Kv3.2 Activity at 10 μM Potentiation (%); for Kv3.2 Activity at 10 μM Voltage Shift (mV): voltage shift of the IV curve at V1/2
T1 construct: expressed in transfected cells
T1 sequence (Q96PR1 1-638): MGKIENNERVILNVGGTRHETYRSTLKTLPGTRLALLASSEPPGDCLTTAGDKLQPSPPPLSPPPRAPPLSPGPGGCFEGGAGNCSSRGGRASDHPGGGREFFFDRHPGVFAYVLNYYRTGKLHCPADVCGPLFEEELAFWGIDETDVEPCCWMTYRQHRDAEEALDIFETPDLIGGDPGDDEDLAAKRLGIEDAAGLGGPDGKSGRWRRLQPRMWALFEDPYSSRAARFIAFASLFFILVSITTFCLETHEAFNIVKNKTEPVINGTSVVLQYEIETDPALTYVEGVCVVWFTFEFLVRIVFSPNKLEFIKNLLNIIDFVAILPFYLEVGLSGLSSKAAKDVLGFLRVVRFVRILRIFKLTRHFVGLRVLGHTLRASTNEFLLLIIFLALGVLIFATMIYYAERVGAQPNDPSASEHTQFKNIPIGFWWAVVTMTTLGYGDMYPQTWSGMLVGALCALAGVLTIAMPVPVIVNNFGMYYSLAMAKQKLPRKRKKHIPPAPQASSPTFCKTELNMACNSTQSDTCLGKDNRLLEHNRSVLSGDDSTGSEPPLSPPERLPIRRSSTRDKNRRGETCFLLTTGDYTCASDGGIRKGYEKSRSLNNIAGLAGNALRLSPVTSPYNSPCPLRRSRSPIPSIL
Method: (§1) hKv3.1, hKv3.2, hKv3.3, and hKv3.4 were stably expressed in CHO-K1 (Chinese hamster ovary) cells and kept under constant antibiotic selection. For in vitro assays, cells were maintained in appropriate growth medium at 37° C. and 5% CO2 in a humidified incubator.
(§2) hKv3.X expressing cells were plated in T-25 flasks for 3-4 days at 37° C. (no selection antibiotic) prior to use and grown to 80% confluence. Cells were washed twice with PBS (calcium and magnesium free) and detached with a 5-minute treatment at 37° C. with 2-3 mls of Accutase®. Cells were collected, and flask was washed in CHO-SFM II media (Life Technologies Gibco), centrifuged for 2 minutes at ˜110×g and resuspended to obtain a single cell suspension of ˜2-3×10^6 cells/ml.
(§3) The intracellular solution contained the following (in mM): KCl 50, NaCl 10, KF 60, EGTA 20, HEPES 10, adjusted to pH 7.2 with KOH and an osmolarity of 285 mOsmol. Seal enhancer was purchased from Nanion (80 mM NaCl, 3 mM KCl, 10 mM MgCl2, 35 mM CaCl2), 10 mM HEPES, pH7.4, 298 mOsmol. The external solution contained (in mM): NaCl 140, KCl 4, CaCl2) 2, MgCl2 1, HEPES 10, Glucose 5, adjusted to pH7.4 and an osmolarity of 298 mOsmol.
(§4) All compounds were initially tested at 10 uM at a final DMSO concentration of 0.33%. Compounds were dissolved in dimethylsulfoxide (DMSO) at a stock concentration of 30 mM. The compound was further diluted 1:10 to give a stock concentration of 3 mM in DMSO. The final assay solution was diluted 1:300 in External solution to give a final concentration of 10 uM. For the DMSO Control Buffer 30 uL of DMSO was added to 10 mL buffer.
(§5) All electrophysiological recordings were performed at ambient temperature (21-23° C.) using automated patch clamp (Patchliner, Nanion Technologies GmbH) in the whole-cell configuration.
(§6) Cell membrane potentials were held at −80 mV, and currents were evoked by voltage steps (1000 ms duration) from −60 to +60 mV in 10 mV increments. This was performed first with vehicle (0.33% DMSO) and then with 10 uM compound, after a 3-minute incubation period. Data was taken from 4 cells per assay.
(§7) The recordings were analysed and selected using peak current amplitude (>100 pA at the −10 mV voltage step) in the absence of compound to eliminate unsuitable cells from analysis. Peak current amplitude was measured and recorded for each voltage step and data was normalised to the maximum current at +60 mV. The normalised Kv3.x currents following addition of the compound were then compared with the currents recorded prior to compound addition (vehicle control). Positive modulation was determined as % potentiation at the voltage step of −10 mV=[current (cmpd)/current (veh)]*100−100. % potentiation≥50% was considered acceptable. In addition, voltage shift of the IV curve at V1/2 was measured. V1/2 of ≥−5 mV was also considered acceptable. IV curves were plotted in GraphPad Prism (software version 6.0) and fitted with a Boltzmann equation, where V1/2 is the voltage at half-maximal activation.

hKv3.1 = target: T2, hKv3.1 (Homo sapiens, UniProt P48547); assay: Automated patch clamp electrophysiology (Patchliner), CHO/Kv3.1 cells; type: cell-based; details: 10 μM compound, hKv3.1 in CHO-K1, whole-cell; for Kv3.1 Activity at 10 μM Potentiation (%): peak current at voltage step of −10 mV vs vehicle (0.33% DMSO); for Kv3.1 Activity at 10 μM Voltage Shift (mV): voltage shift of the IV curve at V1/2
T2 construct: expressed in transfected cells
T2 sequence (P48547 1-511): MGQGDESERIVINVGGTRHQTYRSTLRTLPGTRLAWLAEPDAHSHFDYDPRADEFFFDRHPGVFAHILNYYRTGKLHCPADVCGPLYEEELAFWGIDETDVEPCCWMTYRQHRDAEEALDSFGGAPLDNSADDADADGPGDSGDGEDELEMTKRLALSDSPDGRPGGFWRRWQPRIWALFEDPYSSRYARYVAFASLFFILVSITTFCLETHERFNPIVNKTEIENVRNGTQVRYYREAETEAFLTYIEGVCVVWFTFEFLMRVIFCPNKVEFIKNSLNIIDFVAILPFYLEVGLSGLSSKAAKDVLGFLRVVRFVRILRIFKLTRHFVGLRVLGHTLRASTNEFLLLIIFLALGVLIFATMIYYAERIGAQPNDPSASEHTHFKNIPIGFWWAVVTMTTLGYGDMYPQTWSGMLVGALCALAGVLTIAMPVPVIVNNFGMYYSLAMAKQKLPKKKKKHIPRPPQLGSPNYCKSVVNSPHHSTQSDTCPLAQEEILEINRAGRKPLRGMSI
Method: as §1, §2, §3, §4, §5, §6, §7

| Compound | activation at 10 µM (hKv3.2) [%] | Kv3.2 Activity at 10 μM Voltage Shift (mV) (hKv3.2) | Kv3.1 Activity at 10 μM Potentiation (%) (hKv3.1) | Kv3.1 Activity at 10 μM Voltage Shift (mV) (hKv3.1) |
| --- | --- | --- | --- | --- |
| COc1cc(Oc2cc(N3C(=O)NC(C)(C)C3=O)ncn2)ccc1C [Example 1, 3-[6-(3-methoxy-4-methyl-phenoxy)pyrimidin-4-yl]-5,5-dimethyl-imidazolidine-2,4-dione] | 25 | −4.3 mV | 45 | −5.5 |
| COc1cc(Oc2cc(N3C(=O)NC(C)(C)C3=O)ncn2)ccc1F [Example 13, 3-[6-(3-methoxy-4-fluoro-phenoxy)pyrimidin-4-yl]-5,5-dimethyl-imidazolidine-2,4-dione] | 86 | −9.2 mV | 40 | −2.7 |
| COc1cc(Oc2cc(N3C(=O)NC4(CCCC4)C3=O)ncn2)ccc1F [Example 14, 3-[6-(4-fluoro-3-methoxy-phenoxy)pyrimidin-4-yl]-1,3-diazaspiro[4.4]nonane-2,4-dione] | 42 | −1.1 mV | 43 | −2.3 |
| COc1cc(Oc2cc(N3C(=O)NC4(CCCCC4)C3=O)ncn2)ccc1F [Example 15, 3-[6-(4-fluoro-3-methoxy-phenoxy)pyrimidin-4-yl]-1,3-diazaspiro[4.5]decane-2,4-dione] | 1 | −0.3 mV | 17 | −2.7 |
| Cc1ccc(Oc2cc(N3C(=O)NC(C)(C)C3=O)ncn2)cc1F [Example 16, 3-[6-(3-fluoro-4-methyl-phenoxy)pyrimidin-4-yl]-5,5-dimethyl-imidazolidine-2,4-dione] | 24 | −2.8 mV | 63 | −4.2 |
| Cc1ccc(Oc2cc(N3C(=O)NC(C)(C)C3=O)ncn2)c2c1OCC21CC1 [Example 47, 5,5-dimethyl-3-[6-(7-methylspiro[2H-benzofuran-3,1′-cyclopropane]-4-yl)oxypyrimidin-4-yl]imidazolidine-2,4-dione] | 54 | −4.9 mV | 36 | −2.8 |
| COc1cc(Oc2ccnc(N3C(=O)NC4(CCCCC4)C3=O)n2)ccc1C [Example 50, 3-[4-(3-methoxy-4-methyl-phenoxy)pyrimidin-2-yl]-1,3-diazaspiro[4.5]decane-2,4-dione] | -7 | +1.6 mV | 2 | −1.5 |
| COc1cc(Oc2cncc(N3C(=O)NC(C)(C)C3=O)n2)ccc1C [Example 53, 3-[6-(3-methoxy-4-methyl-phenoxy)pyrazin-2-yl]-5,5-dimethyl-imidazolidine-2,4-dione] | 49 | −6.0 mV | 52 | −4.0 |
| CC[C@H]1NC(=O)N(c2nccc(Oc3ccc(C)c(OC)c3)n2)C1=O [Example 56, (5R)-5-ethyl-3-[4-(3-methoxy-4-methyl-phenoxy)pyrimidin-2-yl]imidazolidine-2,4-dione] | 35 | −4.6 mV | 26 | −5.0 |
| CC[C@H]1NC(=O)N(c2nccc(Oc3ccccc3-c3ccccc3)n2)C1=O [Example 58, (5R)-5-ethyl-3-[4-(2-phenylphenoxy)pyrimidin-2-yl]imidazolidine-2,4-dione] | 39 | −4.6 mV | 61 | −6.9 |
| COc1cc(Oc2nccc(N3C(=O)NC(C)(C)C3=O)n2)ccc1C [Example 63, 3-[2-(3-methoxy-4-methyl-phenoxy)pyrimidin-4-yl]-5,5-dimethyl-imidazolidine-2,4-dione] | 25 | −2.3 mV | 50 | −4.2 |
| COc1cc(Oc2nccc(N3C(=O)NC(C)(C)C3=O)n2)ccc1F [Example 64, 3-[2-(3-methoxy-4-fluoro-phenoxy)pyrimidin-4-yl]-5,5-dimethyl-imidazolidine-2,4-dione] |  |  | 34 | −1.8 |
| COc1cc(Oc2nccc(N3C(=O)NC(C)(C)C3=O)n2)ccc1Cl [Example 66, 3-[2-(4-chloro-3-methoxy-phenoxy)pyrimidin-4-yl]-5,5-dimethyl-imidazolidine-2,4-dione] | 54 | −3.5 mV |  |  |
| COc1cc(Oc2cnnc(N3C(=O)NC(C)(C)C3=O)c2)ccc1C [Example 77, 3-[5-(3-methoxy-4-methyl-phenoxy)pyridazin-3-yl]-5,5-dimethyl-imidazolidine-2,4-dione] |  |  | 26 | −2.4 |
